Test results from article PMC6222696, “Inhibition of UGT2B7 Enzyme Activity in Human and Rat Liver Microsomes by Herbal Constituents” (Molecules : A Journal of Synthetic Chemistry and Natural …, 2018).
Values joined by “and” are separate entries in the source; they are usually repeats but may differ in a detail not shown here. Equal values may be shown once. Read-outs that look alike come from different tables or passages of the source.

How the values were obtained:
UGT2B7 [1] = molecular target: T1, UGT2B7 (Homo sapiens, UniProt P16662); test: Inhibition of ZDV glucuronidation in human liver microsomes (HLM)
T1 sequence (P16662 24-529): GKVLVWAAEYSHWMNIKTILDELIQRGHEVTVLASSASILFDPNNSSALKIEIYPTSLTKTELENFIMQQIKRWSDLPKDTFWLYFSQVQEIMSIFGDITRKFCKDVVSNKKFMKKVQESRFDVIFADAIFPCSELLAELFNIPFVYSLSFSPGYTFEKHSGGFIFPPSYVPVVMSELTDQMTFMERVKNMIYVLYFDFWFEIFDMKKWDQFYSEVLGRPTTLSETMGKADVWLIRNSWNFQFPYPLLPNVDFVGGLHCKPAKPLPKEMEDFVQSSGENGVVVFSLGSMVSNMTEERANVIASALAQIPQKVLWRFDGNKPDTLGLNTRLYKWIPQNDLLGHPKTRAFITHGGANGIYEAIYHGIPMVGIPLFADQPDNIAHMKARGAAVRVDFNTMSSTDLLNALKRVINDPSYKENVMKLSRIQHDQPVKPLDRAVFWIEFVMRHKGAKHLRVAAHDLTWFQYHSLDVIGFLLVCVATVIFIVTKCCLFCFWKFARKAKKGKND
Description: (§1) An incubation mixture in a total volume of 200 µL contained 100 mM Tris-HCl buffer at pH 7.4, 5 mM MgCl2, microsomal protein (0.2 mg/mL for HLM assay and 2 mg/mL for RLM assay) and 0.1 mg/mg protein of Brij58 was kept in ice for 10 min. […] The incubation volume was made up to 200 µL with distilled water in a 1.5 mL polypropylene microcentrifuge tube. After pre-incubation at 37 °C for 10 min in a shaking water bath, a reaction was started by the addition of 5 mM UDPGA and was further incubated (120 min for HLM and 90 min for RLM). Following the incubation, the reaction was terminated by adding 100 µL ice-cold acetonitrile containing 75 µM of 4MUG as the internal standard (IS). The sample was allowed for protein precipitation on ice for 15 min, then vortexed shortly, and centrifuged at 15,000 rpm for 10 min at 4 °C. Supernatant was transferred into HPLC vials for HPLC analysis.
Stock solutions for the herbal constituents were prepared at concentrations of 50 mM by dissolving them in their respective solvents. […] Working solutions were prepared at concentrations of 5 mM in distilled water so that the final organic solvent concentrations in incubations were less than 2% (v/v).
(§2) Thirteen herbal constituents were screened for inhibition of ZDV glucuronidation in HLM and RLM. Screening experiments using three concentrations (1 µM, 10 µM and 100 µM) of each herbal constituent were conducted to screen for the inhibitory potential of the constituent. All incubation assays were performed in triplicate (n = 3).
(§3) The ZDVG concentration formed was quantified using the calibration curve of ZDVG. Final UGT2B7 specific activity value was expressed in pmol/min/mg protein. […] Km and Vmax were determined using the same software under the enzyme-kinetic inhibition (substrate inhibition) model.

UGT enzymes = conditions: cited from earlier work; for inhibition of UGT enzymes in HLM with 4MU as substrate (in words): 4MU nonspecific UGT substrate
UGT nonspecific [2] = tested on: UGT nonspecific; parameters: method as in ref 19-24 (andrographolide); 35-37 (mitragynine); 26, 27, 29, 31, 38, 39 (quercetin); conditions: rats; ref 19-24 (andrographolide); 35-37 (mitragynine); 26, 27, 29, 31, 38, 39 (quercetin); cited from earlier work
UGT2B7 [3] = conditions: cited from earlier work; for effect on UGT2B7 in vitro (in words): 19 (curcumin), 37, 70 (ketamine), 19, 20, 22, 23 (andrographolide); for UGT2B7, in vitro study: supersomes
HLM = tested on: HLM; parameters: method as in PMID 25204783; conditions: cited from earlier work
UGT2B7 [4] = molecular target: T1, UGT2B7; parameters: method as in PMID 24631340; conditions: non-competitive inhibition; read-out: inhibition constant (Ki) for ZDV glucuronidation in HLM; cited from earlier work
UGT2B7 [5] = test: Inhibition of ZDV glucuronidation in rat liver microsomes (RLM); conditions: for IC50 at 90 min: rat
Description: The livers were rinsed promptly with ice-cold distilled water followed by ice-cooled 67 mM potassium phosphate buffer (pH 7.4) containing 1.15% (w/v) KCl after removal from the rats. The livers were then homogenized in three volumes of the same buffer using Potter-Elvehjem homogenizer after blotted dry and weighed. After that, the homogenate was centrifuged at 12,500× g for 20 min at 4 °C. The resultant supernatant was further centrifuged at 100,000× g for 60 min at 4 °C to obtain the microsomal pellets. Each pellet obtained was scrapped and reconstituted in 0.3 mL of 67 mM potassium phosphate buffer with 1.15% (w/v) KCl and 20% (v/v) glycerol before homogenizing them together to obtain pooled microsomes. Microsomes were then transferred into several microfuge tubes and stored at −80 °C until used.
as §1
Stock solutions for the herbal constituents were prepared at concentrations of 50 mM by dissolving them in their respective solvents. Andrographolide, arecoline, arecaidine, mangiferin and vanillin were dissolved in distilled water. […] Working solutions were prepared at concentrations of 5 mM in distilled water so that the final organic solvent concentrations in incubations were less than 2% (v/v).
as §2
The ZDVG concentration formed was quantified using the calibration curve of ZDVG. Final UGT2B7 specific activity value was expressed in pmol/min/mg protein.

[6] = cited from earlier work; for maximum plasma concentration: humans
UGT2B10 = tested on: UGT2B10; parameters: method as in ref 26-30 (kaempferol); 26, 27, 29, 31, 38, 39 (quercetin); conditions: supersomes; ref 26-30 (kaempferol); 26, 27, 29, 31, 38, 39 (quercetin); cited from earlier work
UGT1A6 [7] = tested on: UGT1A6; parameters: method as in ref 19-24 (andrographolide); 26-30 (kaempferol); 32-34 (mangiferin); 26, 27, 29, 31, 38, 39 (quercetin); conditions: supersomes; ref 19-24 (andrographolide); 26-30 (kaempferol); 32-34 (mangiferin); 26, 27, 29, 31, 38, 39 (quercetin); cited from earlier work
UGT nonspecific [8] = tested on: UGT nonspecific; parameters: method as in ref 26-30 (kaempferol); 26, 27, 29, 31, 38, 39 (quercetin); conditions: mammalian cells; ref 26-30 (kaempferol); 26, 27, 29, 31, 38, 39 (quercetin); cited from earlier work
UGT1A1 [9] = tested on: UGT1A1; parameters: method as in ref 26-30 (kaempferol); 35-37 (mitragynine); 26, 27, 29, 31, 38, 39 (quercetin); conditions: supersomes; ref 26-30 (kaempferol); 35-37 (mitragynine); 26, 27, 29, 31, 38, 39 (quercetin); cited from earlier work
UGT1A1 [10] = tested on: UGT1A1; parameters: method as in ref 26-30 (kaempferol); 26, 27, 29, 31, 38, 39 (quercetin); conditions: mammalian cells; ref 26-30 (kaempferol); 26, 27, 29, 31, 38, 39 (quercetin); cited from earlier work
UGT1A3 = tested on: UGT1A3; parameters: method as in ref 19-24 (andrographolide); 26-30 (kaempferol); 32-34 (mangiferin); 26, 27, 29, 31, 38, 39 (quercetin); conditions: supersomes; ref 19-24 (andrographolide); 26-30 (kaempferol); 32-34 (mangiferin); 26, 27, 29, 31, 38, 39 (quercetin); cited from earlier work
UGT1A9 = conditions: HLM, supersomes, cited from earlier work
UGT1A1 [11] = tested on: UGT1A1; parameters: method as in PMID 18001207, PMID 19889883, PMID 25008344, PMID 24553666, PMID 29574133; conditions: mice; cited from earlier work
UGT1A6 [12] = tested on: UGT1A6; parameters: method as in PMID 18001207, PMID 19889883, PMID 24553666, PMID 22958586, PMID 10660112; conditions: mammalian cells; cited from earlier work
UGT2B17 = conditions: supersomes; ref 31 (gallic acid); 32-34 (mangiferin); 26, 27, 29, 31, 38, 39 (quercetin); cited from earlier work
UGT nonspecific [13] = tested on: UGT nonspecific; parameters: method as in PMID 28479734; conditions: system not given; cited from earlier work
UGT2B7 [14] = tested on: UGT2B7; parameters: method as in PMID 29425147; conditions: by inhibiting UGT2B7 activity; cited from earlier work
[15] = tested on: gluthathione-S-transferases enzyme; parameters: method as in PMID 15304356; conditions: in vitro; cited from earlier work
CYP3A4 = tested on: CYP3A4; parameters: method as in PMID 15270556; conditions: in vitro; cited from earlier work
UGT2B7 [16] = molecular target: T1, UGT2B7; test: in vitro; conditions: HLM; for microsomal CLint: human liver microsomes, pH 7.4, CLint, Vmax/Km; for Km at 120 min: pH 7.4, Km, mean ± SD
Description: An incubation mixture in a total volume of 200 µL contained 100 mM Tris-HCl buffer at pH 7.4, 5 mM MgCl2, microsomal protein (0.2 mg/mL for HLM assay and 2 mg/mL for RLM assay) and 0.1 mg/mg protein of Brij58 was kept in ice for 10 min. […] The incubation volume was made up to 200 µL with distilled water in a 1.5 mL polypropylene microcentrifuge tube. After pre-incubation at 37 °C for 10 min in a shaking water bath, a reaction was started by the addition of 5 mM UDPGA and was further incubated (120 min for HLM and 90 min for RLM). […] The sample was allowed for protein precipitation on ice for 15 min, then vortexed shortly, and centrifuged at 15,000 rpm for 10 min at 4 °C. Supernatant was transferred into HPLC vials for HPLC analysis.
Once the initial velocity conditions had been established, the ZDV concentrations were varied to generate a saturation curve for determination of Michaelis constant (Km) and maximal velocity of reaction (Vmax) values of ZDV glucuronidation in HLM and RLM. The experiments were conducted in the absence and presence of BSA. Under optimized conditions, substrate concentrations used in incubation assay were varied from 0–5 mM of ZDV for HLM assay and 0–30 mM of ZDV for RLM assay. All assays were performed in triplicates (n = 3).
as §3

[17] = rats, cited from earlier work
[18] = humans, cited from earlier work
UGT2B7 [19] = test: ZDV glucuronidation kinetics in RLM; conditions: for Km at 90 min / microsomal CLint: rat; for Km at 90 min: pH 7.4, Km; for microsomal CLint: rat liver microsomes (pooled), pH 7.4, CLint, Vmax/Km
Description: as §1
Once the initial velocity conditions had been established, the ZDV concentrations were varied to generate a saturation curve for determination of Michaelis constant (Km) and maximal velocity of reaction (Vmax) values of ZDV glucuronidation in HLM and RLM. The experiments were conducted in the absence and presence of BSA. Under optimized conditions, substrate concentrations used in incubation assay were varied from 0–5 mM of ZDV for HLM assay and 0–30 mM of ZDV for RLM assay. All assays were performed in triplicates (n = 3). The enzyme kinetic parameters (Km and Vmax) were obtained by fitting kinetic models to the experimental data using GraphPad Prism version 5.01 for Windows.
as §3

[20] = IC50 for inhibition of ZDV glucuronidation in HLM, human liver microsomes, ZDV as UGT2B7 probe substrate, 1% (w/v) BSA
[21] = concentration showing 50% inhibition of ZDV glucuronidation in HLM (screening), screening at 1 µM, 10 µM and 100 µM

C=C1CC[C@@H]2[C@](C)(CO)[C@H](O)CC[C@@]2(C)[C@@H]1C/C=C1/C(=O)OC[C@H]1O [Andrographolide, andrographolide]
IC50 (UGT2B7 [1]; [20]): 6.18 ± 1.27 µM | IC50 (UGT2B7 [1]; [21]): < 100 µM | inhibition of UGT enzymes in HLM with 4MU as substrate (in words) (UGT enzymes): weak inhibition | UGT nonspecific, in vivo/ex vivo study (UGT nonspecific [2]): UGT nonspecific ↑ (rats) | effect on UGT2B7 in vitro (in words) (UGT2B7 [3]): inhibit | UGT2B7, in vitro study (UGT2B7 [3]; HLM): UGT2B7 ↓ (HLM, supersomes) | glucuronidation as a substrate in HLM (in words) (HLM): glucuronidated | Ki (UGT2B7 [4]): 6.1 µM | inhibition of ZDV glucuronidation in RLM (in words) (UGT2B7 [5]; rat liver microsomes): weak inhibition | maximum plasma concentration ([6]; oral 20 mg of andrographolide four times a day): 1.34 µg/mL and 3.8 µM | maximum concentration in plasma ([6]; ingestion of 32.64 mg of andrographolide three times a day): 32.41 ng/mL and 0.09 µM | maximum concentration in plasma ([6]; ingestion of 200 mg of andrographolide three times a day): 58.6 ng/mL and 0.17 µM

O=c1c(O)c(-c2ccc(O)cc2)oc2cc(O)cc(O)c12 [Kaempferol]
UGT2B10, in vitro study (UGT2B10): UGT2B10 ↓ (supersomes) | UGT2B7, in vitro study (UGT2B7 [3]; ref 26-30 (kaempferol), 35-37 (mitragynine)): UGT2B7 ↓ (supersomes) | UGT1A6, in vitro study (UGT1A6 [7]): UGT1A6 ↓ (supersomes) | UGT nonspecific, in vitro study (UGT nonspecific [8]): UGT nonspecific ↑ (mammalian cells) | UGT1A1, in vitro study (UGT1A1 [9]): UGT1A1 ↓ (supersomes) | UGT1A1, in vitro study (UGT1A1 [10]): UGT1A1 ↑ (mammalian cells) | UGT1A3, in vitro study (UGT1A3): UGT1A3 ↓ (supersomes) | UGT1A9, in vitro study (UGT1A9; HIM): UGT1A9 ↓ (HLM, HIM, supersomes) | UGT1A1, in vivo/ex vivo study (UGT1A1 [11]): UGT1A1 ↑ (mice)

O=c1c(O)c(-c2ccc(O)c(O)c2)oc2cc(O)cc(O)c12 [Quercetin, quercetin]
UGT nonspecific, in vivo/ex vivo study (UGT nonspecific [2]): UGT nonspecific ↑ (rat) | UGT nonspecific, in vitro study (UGT nonspecific [8]): UGT nonspecific ↑ (mammalian cells) | UGT1A1, in vitro study (UGT1A1 [9]): UGT1A1 ↓ (supersomes) | UGT1A1, in vitro study (UGT1A1 [10]): UGT1A1 ↑ (mammalian cells) | UGT1A3, in vitro study (UGT1A3): UGT1A3 ↓ (supersomes) | UGT1A6, in vitro study (UGT1A6 [12]): UGT1A6 ↑ (mammalian cells) | UGT2B17, in vitro study (UGT2B17): UGT2B17 ↓ (supersomes) | UGT1A9, in vitro study (UGT1A9; RLM): UGT1A9 ↓ (HLM, RLM, supersomes)

COc1cc(C=O)ccc1O [Vanillin]
UGT nonspecific, in vitro study (UGT nonspecific [13]): UGT nonspecific ↓

CNC1(c2ccccc2Cl)CCCCC1=O (stereo not drawn) [ketamine, reference compound]
effect on UGT2B7 in vitro (in words) (UGT2B7 [3]): inhibit

CCC1CN2CCc3c([nH]c4cccc(OC)c34)C2CC1/C(=C\OC)C(=O)OC (stereo not drawn) [mitragynine]
IC50 (UGT2B7 [1]; [20]): 8.11 ± 4.48 µM | IC50 (UGT2B7 [1]; [21]): < 100 µM | inhibition of 4MU glucuronidation in HLM (UGT enzymes; at a concentration of 1 μM): approximately 30 % of control activity | IC50 (UGT enzymes; read-out: IC50 for 4MU glucuronidation in HLM): > 1000 µM | UGT nonspecific, in vivo/ex vivo study (UGT nonspecific [2]): UGT nonspecific ↑ (rats) | IC50 at 90 min (UGT2B7 [5]; pH 7.4, IC50 for inhibition of ZDV glucuronidation in RLM, rat liver microsomes, ZDV as probe substrate, 1% (w/v) BSA): 51.2 ± 5.95 µM | IC50 at 90 min (UGT2B7 [5]; pH 7.4, concentration inhibiting ZDV glucuronidation in RLM higher than 50% (screening), screening at 1 µM, 10 µM and 100 µM): < 100 µM | maximum plasma concentration ([6]; M. speciosa tea with 11 mg mitragynine for seven days then 23 mg on the eighth day): 0.105 µg/mL and 0.26 µM

C[C@@H]1[C@H]2c3cc4c(cc3O[C@@]35OCOC3=CC(=O)[C@H](C[C@H]1C)[C@@H]25)OCO4 [sauchinone]
effect on zidovudine (ZDV) concentration in mice blood (in words) (UGT2B7 [14]): elevated

C/C1=C\CC(C)(C)/C=C/C(=O)/C(C)=C/CC1 [zerumbone]
IC50 (UGT2B7 [1]; [20]): 4.57 ± 0.23 µM | IC50 (UGT2B7 [1]; [21]): < 100 µM | effect on Phase II gluthathione-S-transferases enzyme (in words) [15]: induce | IC50 at 90 min (UGT2B7 [5]; rat liver microsomes (pooled), pH 7.4, probe zidovudine (ZDV), at or below its Km, IC50 for inhibition of ZDV glucuronidation in RLM, rat liver microsomes, ZDV as probe substrate, 1% (w/v) BSA): 8.14 ± 2.12 µM | IC50 at 90 min (UGT2B7 [5]; rat liver microsomes (pooled), pH 7.4, probe zidovudine (ZDV), at or below its Km, concentration inhibiting ZDV glucuronidation in RLM higher than 50% (screening), screening at 1 µM, 10 µM and 100 µM): < 100 µM | effect on metabolism mediated by CYP3A4 (in words) (CYP3A4): moderately inhibit

Cc1cn([C@H]2C[C@H](N=[N+]=[N-])[C@@H](CO)O2)c(=O)[nH]c1=O [zidovudine, 3′-Azido-3′-deoxythymidine]
microsomal CLint (UGT2B7 [16]; with 1% BSA): 1.65 µL/min/mg | microsomal CLint (UGT2B7 [16]; without 1% BSA): 0.32 µL/min/mg | Km at 120 min (UGT2B7 [16]; with 1% BSA): 0.88 ± 0.05 mM | Km at 120 min (UGT2B7 [16]; without 1% BSA): 3.4 ± 0.7 mM | in vivo systemic clearance ([17]; for 0.25 kg of rat): 3 mL/min/kg | dose excreted as glucuronides [17]: ~10% | in vivo systemic clearance ([18]; for 70 kg of man): 16.8 mL/min/kg | dose excreted as glucuronides [18]: approximately 75% | Km at 90 min (UGT2B7 [19]; with 1% BSA, mean ± SD): 6.77 ± 0.6 mM | Km at 90 min (UGT2B7 [19]; without 1% BSA, mean ± SD): 8.84 ± 1.19 mM | microsomal CLint (UGT2B7 [19]; with 1% BSA): 0.16 µL/min/mg | microsomal CLint (UGT2B7 [19]; without 1% BSA): 0.09 µL/min/mg | Vmax (UGT2B7 [19]; without 1% BSA, mean ± SD): 770 ± 39.82 pmol/mg/min

kaempferol-3-O-rutinoside [kaempferol-3-rutinoside]
inhibition of UGT enzymes in HLM with 4MU as substrate (in words) (UGT enzymes): did not significantly inhibit
